According to US20100298141A1, “SUBSTITUTED PYRIDINE N-OXIDE HERBICIDES” (E. I. DU PONT DE NEMOURS AND COMPANY, priority 2007, published 2010):

Key:
green foxtail = experiment: Test F preemergence test; assay type: in vivo, Setaria viridis; details: scale 0 to 100
Procedure, shortened: (§1)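 Preemergence application to planted seeds, or postemergence to sugarcane plants; compound in non-phytotoxic solvent mix plus surfactant. Greenhouse, 14-21 days. Visual rating vs. controls.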

large crabgrass = experiment: Test F preemergence test; assay type: in vivo, Digitaria sanguinalis; details: scale 0 to 100
Procedure, shortened: as §1

barnyardgrass = experiment: Test F preemergence test; assay type: in vivo, Echinochloa crus-galli
Procedure, shortened: as §1

goosegrass = experiment: Test F preemergence test; assay type: in vivo, Eleusine indica; details: scale 0 to 100
Procedure, shortened: as §1

field bindweed = experiment: Test F preemergence test; assay type: in vivo, Convolvulus arvensis; details: scale 0 to 100
Procedure, shortened: as §1

itchgrass = experiment: Test F preemergence test; assay type: in vivo, Rottboellia cochinchinensis; details: scale 0 to 100
Procedure, shortened: as §1

common purslane = experiment: Test F preemergence test; assay type: in vivo, Portulaca oleracea; details: scale 0 to 100
Procedure, shortened: as §1

naked crabgrass = experiment: Test F preemergence test; assay type: in vivo, Digitaria nuda; details: scale 0 to 100
Procedure, shortened: as §1

Italian ryegrass = experiment: Test F preemergence test; assay type: in vivo, Lolium multiflorum; details: scale 0 to 100
Procedure, shortened: as §1

annual bluegrass = experiment: Test F preemergence test; assay type: in vivo, Poa annua; details: scale 0 to 100
Procedure, shortened: as §1

southern sandbur = experiment: Test F preemergence test; assay type: in vivo, Cenchrus echinatus; details: scale 0 to 100
Procedure, shortened: as §1

Russian thistle = experiment: Test C pre-/postemergence test; assay type: in vivo, Salsola kali; details: for Plant response rating, Russian Thistle: 31 g ai/ha, scale 0 to 100 (0 no effect, 100 complete control)
Procedure, shortened: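 Compounds in a non-phytotoxic solvent with surfactant applied preemergence to seeded pots and, at the same time, postemergence to plants 2–18 cm tall (1- to 4-leaf stage). Paddy tests: pots flooded to 3 cm, compound applied into the water, depth held throughout.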

common groundsel = experiment: Test F preemergence test; assay type: in vivo, Senecio vulgaris; details: scale 0 to 100
Procedure, shortened: as §1

common ragweed = experiment: Test F preemergence test; assay type: in vivo, Ambrosia elation; details: scale 0 to 100
Procedure, shortened: as §1

purple nutsedge = experiment: Test F preemergence test; assay type: in vivo, Cyperus rotundus; details: scale 0 to 100
Procedure, shortened: as §1

pitted morningglory = experiment: Test F preemergence test; assay type: in vivo, Ipomoea lacunosa; details: scale 0 to 100
Procedure, shortened: as §1

johnsongrass = experiment: Test F preemergence test; assay type: in vivo, Sorghum halepense; details: scale 0 to 100
Procedure, shortened: as §1

[1] = 62 g ai/ha, Preemergence, scale 0 to 100
[2] = 125 g ai/ha, preemergence, scale 0 to 100
[3] = Preemergence, 31 g ai/ha, scale 0 to 100

Cc1cc[n+]([O-])c(S(=O)(=O)C(Cl)c2c(C(F)(F)F)nn(C)c2Cl)c1 (racemic) [Compound 22]
35: Field Bindweed plant response rating (field bindweed; 125 g ai/ha, preemergence)
40: Plant response rating, Barnyardgrass (barnyardgrass; [3]) | Plant response rating, Crabgrass, Naked (naked crabgrass; Preemergence, 16 g ai/ha)
15: Plant response rating, Foxtail, Green (green foxtail; Preemergence, 31 g ai/ha) | Plant response rating, Purple Nutsedge (purple nutsedge; Preemergence, 31 g ai/ha)
95: Foxtail, Green plant response rating (green foxtail; 125 g ai/ha, preemergence) | Barnyardgrass plant response rating (barnyardgrass; [2])
0: Plant response rating, Foxtail, Green (green foxtail; Preemergence, 16 g ai/ha) | Plant response rating, Crabgrass, Large (large crabgrass; Preemergence, 16 g ai/ha) | Field Bindweed plant response rating (field bindweed; 62 g ai/ha, Preemergence) | Plant response rating, Field Bindweed (field bindweed; Preemergence, 16 g ai/ha) | Plant response rating, Field Bindweed (field bindweed; Preemergence, 31 g ai/ha) | Itchgrass plant response rating (itchgrass; 62 g ai/ha, Preemergence) | Plant response rating, Itchgrass (itchgrass; Preemergence, 16 g ai/ha) | Plant response rating, Itchgrass (itchgrass; Preemergence, 31 g ai/ha) | Plant response rating, Purslane (common purslane; Preemergence, 16 g ai/ha) | Plant response rating, Ryegrass, Italian (Italian ryegrass; Preemergence, 16 g ai/ha) | Plant response rating, Bluegrass (annual bluegrass; Preemergence, 16 g ai/ha) | Plant response rating, Bluegrass (annual bluegrass; Preemergence, 31 g ai/ha) | Plant response rating, Groundsel (common groundsel; Preemergence, 16 g ai/ha) | Plant response rating, Ragweed (common ragweed; Preemergence, 16 g ai/ha) | Plant response rating, Ragweed (common ragweed; Preemergence, 31 g ai/ha) | Plant response rating, Purple Nutsedge (purple nutsedge; Preemergence, 16 g ai/ha) | Morningglory plant response rating (pitted morningglory; 62 g ai/ha, Preemergence) | Plant response rating, Morningglory (pitted morningglory; Preemergence, 16 g ai/ha) | Plant response rating, Morningglory (pitted morningglory; Preemergence, 31 g ai/ha) | Plant response rating, Johnsongrass (johnsongrass; Preemergence, 16 g ai/ha)
98: Goosegrass plant response rating (goosegrass; 125 g ai/ha, preemergence) | Sandbur plant response rating (southern sandbur; 125 g ai/ha, preemergence) | Groundsel plant response rating (common groundsel; 125 g ai/ha, preemergence)
65: Plant response rating, Goosegrass (goosegrass; Preemergence, 16 g ai/ha) | Plant response rating, Goosegrass (goosegrass; Preemergence, 31 g ai/ha) | Plant response rating, Sandbur (southern sandbur; Preemergence, 31 g ai/ha)
100: Crabgrass, Naked plant response rating (naked crabgrass; 125 g ai/ha, preemergence) | Russian Thistle plant response rating (Russian thistle; [1]) | Plant response rating, Russian Thistle (Russian thistle; Preemergence) | Johnsongrass plant response rating (johnsongrass; 125 g ai/ha, preemergence)
60: Itchgrass plant response rating (itchgrass; 125 g ai/ha, preemergence) | Purple Nutsedge plant response rating (purple nutsedge; 125 g ai/ha, preemergence) | Johnsongrass plant response rating (johnsongrass; 62 g ai/ha, Preemergence)
75: Barnyardgrass plant response rating (barnyardgrass; [1]) | Plant response rating, Crabgrass, Naked (naked crabgrass; Preemergence, 31 g ai/ha) | Sandbur plant response rating (southern sandbur; 62 g ai/ha, Preemergence)
10: Plant response rating, Barnyardgrass (barnyardgrass; Preemergence, 16 g ai/ha, scale 0 to 100)
50: Plant response rating, Crabgrass, Large (large crabgrass; Preemergence, 31 g ai/ha) | Bluegrass plant response rating (annual bluegrass; 125 g ai/ha, preemergence) | Groundsel plant response rating (common groundsel; 62 g ai/ha, Preemergence) | Plant response rating, Groundsel (common groundsel; Preemergence, 31 g ai/ha) | Ragweed plant response rating (common ragweed; 62 g ai/ha, Preemergence) | Purple Nutsedge plant response rating (purple nutsedge; 62 g ai/ha, Preemergence) | Plant response rating, Johnsongrass (johnsongrass; Preemergence, 31 g ai/ha)
80: Goosegrass plant response rating (goosegrass; 62 g ai/ha, Preemergence) | Crabgrass, Naked plant response rating (naked crabgrass; 62 g ai/ha, Preemergence) | Ragweed plant response rating (common ragweed; 125 g ai/ha, preemergence)
30: Purslane plant response rating (common purslane; 62 g ai/ha, Preemergence) | Plant response rating, Purslane (common purslane; Preemergence, 31 g ai/ha) | Bluegrass plant response rating (annual bluegrass; 62 g ai/ha, Preemergence)
20: Foxtail, Green plant response rating (green foxtail; 62 g ai/ha, Preemergence) | Plant response rating, Ryegrass, Italian (Italian ryegrass; Preemergence, 31 g ai/ha) | Morningglory plant response rating (pitted morningglory; 125 g ai/ha, preemergence)
90: Purslane plant response rating (common purslane; 125 g ai/ha, preemergence)
70: Crabgrass, Large plant response rating (large crabgrass; 62 g ai/ha, Preemergence) | Crabgrass, Large plant response rating (large crabgrass; 125 g ai/ha, preemergence) | Ryegrass, Italian plant response rating (Italian ryegrass; 62 g ai/ha, Preemergence) | Ryegrass, Italian plant response rating (Italian ryegrass; 125 g ai/ha, preemergence)

CC(Oc1c(C[S+]([O-])c2cccc[n+]2[O-])c(C(F)(F)F)nn1C)C(F)(F)F (centres unmarked) [Compound 77]
20: Plant response rating, Goosegrass (goosegrass; 16 g ai/ha, preemergence) | Purslane plant response rating (common purslane; 62 g ai/ha, Preemergence)
98: Ragweed plant response rating (common ragweed; 125 g ai/ha, preemergence)
100: Foxtail, Green plant response rating (green foxtail; 125 g ai/ha, preemergence) | Crabgrass, Large plant response rating (large crabgrass; 125 g ai/ha, preemergence) | Barnyardgrass plant response rating (barnyardgrass; [1]) | Barnyardgrass plant response rating (barnyardgrass; [2]) | Goosegrass plant response rating (goosegrass; 62 g ai/ha, Preemergence) | Goosegrass plant response rating (goosegrass; 125 g ai/ha, preemergence) | Crabgrass, Naked plant response rating (naked crabgrass; 125 g ai/ha, preemergence) | Ryegrass, Italian plant response rating (Italian ryegrass; 125 g ai/ha, preemergence) | Sandbur plant response rating (southern sandbur; 125 g ai/ha, preemergence) | Russian Thistle plant response rating (Russian thistle; [1]) | Russian Thistle plant response rating (Russian thistle; 125 g ai/ha, preemergence, scale 0 (no effect) to 100 (complete control)) | Plant response rating, Russian Thistle (Russian thistle; Preemergence) | Russian Thistle plant response rating (Russian thistle; preemergence, 250 g ai/ha, scale 0 (no effect) to 100 (complete control)) | Johnsongrass plant response rating (johnsongrass; 125 g ai/ha, preemergence)
70: Field Bindweed plant response rating (field bindweed; 125 g ai/ha, preemergence)
90: Foxtail, Green plant response rating (green foxtail; 62 g ai/ha, Preemergence) | Plant response rating, Barnyardgrass (barnyardgrass; [3]) | Crabgrass, Naked plant response rating (naked crabgrass; 62 g ai/ha, Preemergence) | Plant response rating, Ryegrass, Italian (Italian ryegrass; Preemergence, 62 g ai/ha) | Plant response rating, Sandbur (southern sandbur; Preemergence, 31 g ai/ha) | Morningglory plant response rating (pitted morningglory; 125 g ai/ha, preemergence)
0: Plant response rating, Crabgrass, Large (large crabgrass; 16 g ai/ha, preemergence) | Plant response rating, Field Bindweed (field bindweed; 16 g ai/ha, preemergence) | Plant response rating, Field Bindweed (field bindweed; Preemergence, 31 g ai/ha) | Plant response rating, Itchgrass (itchgrass; 16 g ai/ha, preemergence) | Plant response rating, Purslane (common purslane; 16 g ai/ha, preemergence) | Plant response rating, Purslane (common purslane; Preemergence, 31 g ai/ha) | Plant response rating, Crabgrass, Naked (naked crabgrass; 16 g ai/ha, preemergence) | Plant response rating, Ryegrass, Italian (Italian ryegrass; 16 g ai/ha, preemergence) | Plant response rating, Bluegrass (annual bluegrass; 16 g ai/ha, preemergence) | Bluegrass plant response rating (annual bluegrass; 62 g ai/ha, Preemergence) | Plant response rating, Bluegrass (annual bluegrass; Preemergence, 31 g ai/ha) | Plant response rating, Sandbur (southern sandbur; 16 g ai/ha, preemergence) | Plant response rating, Groundsel (common groundsel; 16 g ai/ha, preemergence) | Groundsel plant response rating (common groundsel; 62 g ai/ha, Preemergence) | Groundsel plant response rating (common groundsel; 125 g ai/ha, preemergence) | Plant response rating, Groundsel (common groundsel; Preemergence, 31 g ai/ha) | Plant response rating, Ragweed (common ragweed; 16 g ai/ha, preemergence) | Plant response rating, Purple Nutsedge (purple nutsedge; 16 g ai/ha, preemergence) | Plant response rating, Morningglory (pitted morningglory; 16 g ai/ha, preemergence) | Plant response rating, Johnsongrass (johnsongrass; 16 g ai/ha, preemergence)
65: Plant response rating, Foxtail, Green (green foxtail; Preemergence, 31 g ai/ha) | Plant response rating, Barnyardgrass (barnyardgrass; 16 g ai/ha, preemergence, scale 0 to 100 (0 no effect, 100 complete control)) | Itchgrass plant response rating (itchgrass; 62 g ai/ha, Preemergence) | Purslane plant response rating (common purslane; 125 g ai/ha, preemergence) | Plant response rating, Ragweed (common ragweed; Preemergence, 62 g ai/ha)
95: Crabgrass, Large plant response rating (large crabgrass; 62 g ai/ha, Preemergence) | Itchgrass plant response rating (itchgrass; 125 g ai/ha, preemergence) | Plant response rating, Sandbur (southern sandbur; Preemergence, 62 g ai/ha)
85: Plant response rating, Crabgrass, Large (large crabgrass; Preemergence, 31 g ai/ha) | Plant response rating, Goosegrass (goosegrass; Preemergence, 31 g ai/ha) | Johnsongrass plant response rating (johnsongrass; 62 g ai/ha, Preemergence)
60: Plant response rating, Purple Nutsedge (purple nutsedge; Preemergence, 31 g ai/ha) | Morningglory plant response rating (pitted morningglory; 62 g ai/ha, Preemergence)
75: Plant response rating, Crabgrass, Naked (naked crabgrass; Preemergence, 31 g ai/ha) | Bluegrass plant response rating (annual bluegrass; 125 g ai/ha, preemergence) | Purple Nutsedge plant response rating (purple nutsedge; 125 g ai/ha, preemergence) | Plant response rating, Johnsongrass (johnsongrass; Preemergence, 31 g ai/ha)
35: Field Bindweed plant response rating (field bindweed; 62 g ai/ha, Preemergence) | Plant response rating, Itchgrass (itchgrass; Preemergence, 31 g ai/ha) | Plant response rating, Morningglory (pitted morningglory; Preemergence, 31 g ai/ha)
40: Plant response rating, Ryegrass, Italian (Italian ryegrass; Preemergence, 31 g ai/ha)
25: Plant response rating, Foxtail, Green (green foxtail; 16 g ai/ha, preemergence)
